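In this assay, cells in 96-well plates receive the compound at five concentrations for 48 hours. Endpoints are linearly interpolated between the surrounding concentrations. GI50 is the concentration that inhibits growth by half. At the TGI there is no net growth.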
Legend:
Assay in all cases: NCI-60 cell line screen, 48 h
[1] = test system: HOP-92 NSCLC
[2] = test system: U251 CNS
[3] = test system: TK-10 renal
[4] = test system: SF-539 CNS
[5] = test system: SNB-75 CNS
[6] = test system: IGROV1 ovarian
[7] = test system: OVCAR-4 ovarian
[8] = test system: A498 renal
[9] = test system: OVCAR-3 ovarian
[10] = test system: COLO 205 colon
[11] = test system: NCI/ADR-RES ovarian
[12] = test system: SR leukemia
[13] = test system: SK-MEL-2 melanoma
[14] = test system: HCC-2998 colon
[15] = test system: BT-549 breast
[16] = test system: NCI-H226 lung
[17] = test system: HCT-15 colon
[18] = test system: RPMI-8226 leukemia
[19] = test system: OVCAR-8 ovarian
[20] = test system: NCI-H460 lung
[21] = test system: HL-60(TB) leukemia
[22] = test system: SNB-19 CNS
[23] = test system: UO-31 renal
[24] = test system: HT29 colon
[25] = test system: M14 melanoma
[26] = test system: LOX IMVI melanoma
[27] = test system: NCI-H23 lung
[28] = test system: EKVX NSCLC
[29] = test system: DU-145 prostate
[30] = test system: RXF 393 renal
[31] = test system: SF-268 CNS
[32] = test system: PC-3 prostate
[33] = test system: A549 NSCLC
[34] = test system: OVCAR-5 ovarian
[35] = test system: SW-620 colon
[36] = test system: T-47D breast
[37] = test system: CAKI-1 renal
[38] = test system: HOP-62 NSCLC
[39] = test system: SN12C renal
[40] = test system: NCI-H522 lung
[41] = test system: SK-MEL-5 melanoma
[42] = test system: UACC-257 melanoma
[43] = test system: 786-0 renal
[44] = test system: UACC-62 melanoma
[45] = test system: HS 578T breast
[46] = test system: MALME-3M melanoma
[47] = test system: K-562 leukemia
[48] = test system: SK-OV-3 ovarian
[49] = test system: SK-MEL-28 melanoma
[50] = test system: HCT-116 colon
[51] = test system: ACHN renal
[52] = test system: MCF7 breast
[53] = test system: MDA-MB-468 breast
[54] = test system: KM12 colon
[55] = test system: CCRF-CEM leukemia
[56] = test system: MDA-MB-231 breast
[57] = test system: MOLT-4 leukemia
[58] = test system: MDA-MB-435
[59] = test system: SF-295 CNS

O=C(Nc1ccc(OCc2ccc(Cl)cc2)cc1)Nc1ccc(Cl)c(C(F)(F)F)c1
GI50 [1]: 1.96 µM | TGI [1]: 5.37 µM | GI50 [2]: 1.92 µM | TGI [2]: 4.55 µM | GI50 [3]: 2.74 µM | TGI [3]: 9.69 µM | GI50 [4]: 2.4 µM | TGI [4]: 5.98 µM | GI50 [5]: 1.42 µM | TGI [5]: 5.45 µM | GI50 [6]: 3.25 µM | TGI [6]: 13.5 µM | GI50 [7]: 2.37 µM | TGI [7]: 9.36 µM | GI50 [8]: 1.96 µM | TGI [8]: 5.21 µM | GI50 [9]: 1.98 µM | TGI [9]: 8.35 µM | GI50 [10]: 1.97 µM | TGI [10]: 4.23 µM | GI50 [11]: 1.74 µM | TGI [11]: 5.41 µM | GI50 [12]: 2.95 µM | TGI [12]: 15.7 µM | GI50 [13]: 2 µM | TGI [13]: 4.6 µM | GI50 [14]: 2.89 µM | TGI [14]: 11.7 µM | GI50 [15]: 2.37 µM | TGI [15]: 5.63 µM | GI50 [16]: 2 µM | TGI [16]: 5.27 µM | GI50 [17]: 1.87 µM | TGI [17]: 10.6 µM | GI50 [18]: 1.55 µM | TGI [18]: 13.5 µM | GI50 [19]: 2.32 µM | TGI [19]: 7.19 µM | GI50 [20]: 1.47 µM | TGI [20]: 3.99 µM | GI50 [21]: 2.33 µM | TGI [21]: 7.07 µM | GI50 [22]: 2.45 µM | TGI [22]: 7.99 µM | GI50 [23]: 1.82 µM | TGI [23]: 6.73 µM | GI50 [24]: 2.78 µM | TGI [24]: 10.2 µM | GI50 [25]: 2.8 µM | TGI [25]: 12.1 µM | GI50 [26]: 1.85 µM | TGI [26]: 3.57 µM | GI50 [27]: 1.39 µM | TGI [27]: 3.83 µM | GI50 [28]: 2.18 µM | TGI [28]: 5.95 µM | GI50 [29]: 2.83 µM | TGI [29]: 10.7 µM | GI50 [30]: 2.89 µM | TGI [30]: 6.17 µM | GI50 [31]: 3.18 µM | TGI [31]: 13.2 µM | GI50 [32]: 1.19 µM | TGI [32]: 13.8 µM | GI50 [33]: 2.19 µM | TGI [33]: 8.07 µM | GI50 [34]: 3.01 µM | TGI [34]: 17.4 µM | GI50 [35]: 2.56 µM | TGI [35]: 10.3 µM | GI50 [36]: 2.06 µM | TGI [36]: 10.1 µM | GI50 [37]: 2.31 µM | TGI [37]: 6.83 µM | GI50 [38]: 2.64 µM | TGI [38]: 8.18 µM | GI50 [39]: 2.03 µM | TGI [39]: 6.46 µM | GI50 [40]: 1.82 µM | TGI [40]: 5.28 µM | GI50 [41]: 1.75 µM | TGI [41]: 3.35 µM | GI50 [42]: 2.33 µM | TGI [42]: 5.96 µM | GI50 [43]: 4.09 µM | TGI [43]: 13.3 µM | GI50 [44]: 2.4 µM | TGI [44]: 10.6 µM | GI50 [45]: 2.27 µM | TGI [45]: 6.7 µM | GI50 [46]: 1.75 µM | TGI [46]: 4.51 µM | GI50 [47]: 1.72 µM | TGI [47]: 65.7 µM | GI50 [48]: 3.42 µM | TGI [48]: 11.6 µM | GI50 [49]: 2.84 µM | TGI [49]: 10.4 µM | GI50 [50]: 1.87 µM | TGI [50]: 7.71 µM | GI50 [51]: 2.37 µM | TGI [51]: 7.62 µM | GI50 [52]: 1.95 µM | TGI [52]: 5.96 µM | GI50 [53]: 1.54 µM | TGI [53]: 4.41 µM | GI50 [54]: 2.62 µM | TGI [54]: 9.32 µM | GI50 [55]: 3.05 µM | TGI [55]: 79.6 µM | GI50 [56]: 2.45 µM | TGI [56]: 6.88 µM | GI50 [57]: 3.02 µM | TGI [57]: 27.2 µM | GI50 [58]: 2.59 µM | TGI [58]: 8.51 µM | GI50 [59]: 1.42 µM | TGI [59]: 3.7 µM
